Reference: patent US9128108B2, “Mephedrone detection” (Randox Laboratories Limted, priority 2010, dated 2015)

Tested on: raised antibody (polyclonal IgG raised against Immunogen 1, Hapten 1-BSA)
Assay: Competitive ELISA with Hapten 1-HRP conjugate confirming binding of raised antibody
Set-up: species or system sheep
Conditions: for binding of raised antibody (in words): competitive immunoassay at different antibody and conjugate concentrations; for Standard Absorb. / % Drop: standard 100 ng/ml; for Standard Absorb.: absorbance at 450 nm; for % Drop: drop of absorbance versus zero standard
Procedure: The process of developing an immunoassay is well known to the person skilled in the art. Briefly, for a competitive immunoassay in which the target analyte is a non-immunogenic molecule such as a hapten, the following process is conducted: antibodies are produced by immunising an animal, preferably a mammalian animal, by repeated administration of an immunogen. The serum from the immunised animal is collected when the antibody titre is sufficiently high. A conjugate is added to a sample containing the target analyte and the raised antibodies, and the conjugate and analyte compete for binding to the antibodies. The process may comprise fixing said serum antibodies to a backing substrate such as a polystyrene solid support or a biochip. The antibodies can be polyclonal or monoclonal, monoclonal antibodies being obtainable from polyclonal sera using standard techniques. The signal emitted in the immunoassay is proportionate to the amount of conjugate bound to the antibodies which in turn is inversely proportionate to the analyte concentration. The signal can be detected or quantified by comparison with a calibrator.
Hapten 1 was conjugated to bovine serum albumin (BSA). The resulting immunogen (Immunogen 1) was administered to adult sheep on a monthly basis to provide target-specific polyclonal antisera. IgG was extracted from the antisera via caprylic acid/ammonium sulphate precipitation of immunoglobulin. Microtitre plates (Thermo Scientific, 468667) were coated with antibody (125 μl) in coating buffer (10 mM Tris pH 8.5) at 37° C. for 2 hours. The plates were then washed 4 times over 10 minutes with working strength TBST. 50 μl of sample/standard (Methcathinone, Sigma M-5037; Cathinone, Sigma C-3196 and Mephedrone, Randox LK973) was added to the appropriate wells in triplicate, followed by 75 μl of Hapten 1-HRP conjugate and incubated at 25° C. for 1 hour. The plates were then washed and 125 μl of TMB (Randox, 4380-15) was added to each well and left at room temperature for 20 mins in the dark. The reaction was stopped using 125 μl of 0.2M sulphuric acid. The absorbances were read at 450 nm with an ELISA microplate reader (BIO-TEK Instruments, Elx800) and the means calculated.
Competitive immunoassay results at different antibody and conjugate concentrations show the raised antibody binds to mephedrone, methcathinone and cathinone (Table 1).

[1] = antibody 1.25 ug/ml, Hapten 1-HRP conjugate dilution 1/8K, zero absorb. 1.986
[2] = antibody 1.25 ug/ml, Hapten 1-HRP conjugate dilution 1/8K
[3] = antibody 5 ug/ml, Hapten 1-HRP conjugate dilution 1/4K, zero absorb. 1.961
[4] = antibody 5 ug/ml, Hapten 1-HRP conjugate dilution 1/4K

| SMILES | binding of raised antibody (in words) | Standard Absorb. [1] | % Drop [2] [%] | Standard Absorb. [3] | % Drop [4] [%] |
| --- | --- | --- | --- | --- | --- |
| CNC(C)C(=O)c1ccc(C)cc1 (racemic) [Mephedrone, (RS)-2-methylamino-1-(4-methylphenyl)propan-1-one] | binds | 0.087 | 95.6 | 0.120 | 93.9 |
| C[C@H](N)C(=O)c1ccccc1 [Cathinone] | binds | 1.515 | 23.7 | 1.600 | 18.4 |
| CNC(C)C(=O)c1ccccc1 (stereo not drawn) [Methcathinone, 2-methylamino-1-phenylpropan-1-one] | binds | 0.169 | 91.5 | 0.205 | 89.5 |
